Laboratory results taken from patent publication US10918713B2, “Epitopes from allergen proteins and methods and uses for immune response modulation” (LA JOLLA INSTITUTE FOR ALLERGY AND IMMUNOLOGY, priority 2012, dated 2021).
Several values for one entry are separate records, joined by “and”; a condition that tells them apart may be missing. Equal entries are not always repeated.

Experiments:
[1] = tested on: PBMC from allergic donors; test: IL-5 ELISPOT with extract-stimulated short-term lines; format: cell-based, human; conditions: positive donor/peptide response
Procedure: (§1) Spots were counted by computer-assisted image analysis (Zeiss, KS-ELISPOT reader, Munich, Germany).
(§2) Each assay was performed in triplicate. The level of statistical significance was determined with a Student's t-test using the mean of triplicate values of the response against relevant pools or individual peptides versus the response against the DMSO control.

[2] = tested on: PBMC from allergic donors; test: Dual ELISPOT, total IL-5 and IFN-γ response (SFC); format: cell-based, human; conditions: sum of IFNg and IL-5
Procedure: as §1, §2

| Compound | Response (SFC/10^6) IL-5 ([1]; each table line is one donor) | Response (SFC/10^6) Total ([2]; each table line is one donor) | Response (SFC/10^6) IL-5 ([1]; one donor per table line) | Response (SFC/10^6) Total ([2]; one donor per table line) |
| --- | --- | --- | --- | --- |
| 3324.1599 (EKVKIERLHPYITLY) | 260 SFC/10^6 | 260 SFC/10^6 | – | – |
| CC[C@H](C)[C@H](N)C(=O)N[C@H](C(=O)N[C@@H](CC(C)C)C(=O)N[C@@H](CC(N)=O)C(=O)N[C@@H](Cc1c[nH]cn1)C(=O)N[C@@H](CCSC)C(=O)N[C@H](C(=O)NCC(=O)N[C@@H](C)C(=O)N[C@@H](CCC(N)=O)C(=O)N[C@@H](CO)C(=O)NCC(=O)N[C@@H](CCCCN)C(=O)NCC(=O)N[C@H](C(=O)O)[C@@H](C)O)[C@@H](C)O)C(C)C [3324.0987] | – | – | 507 SFC/10^6 | 507 SFC/10^6 |
| 3324.0940 (QQYDIKYTWNVPKIA) | – | – | 1333 SFC/10^6 | 1333 SFC/10^6 |
| 3324.0612 (TISNNHFFNHHKVML) | – | – | 542 SFC/10^6 | 542 SFC/10^6 |
| 3324.0525 (DKSMKVTVAFNQFGP) | – | – | 323 SFC/10^6 | 323 SFC/10^6 |
| 3324.1596 (AAEFGTVDSATLIVE) | 3003 SFC/10^6 | 3003 SFC/10^6 | – | – |
| 3324.1183 (LKKAVTAMSEAEKEA) | 128 SFC/10^6 | 128 SFC/10^6 | – | – |
| 3324.1137 (KQQGIRYANPIAFFR) | – | – | 123 SFC/10^6 | 123 SFC/10^6 |
| 3324.0988 (RIYVDIVLNHMTGAQ) | – | – | 117 SFC/10^6 | 117 SFC/10^6 |
| 3324.1191 (DKFTVFESAFNKALN) | 97 SFC/10^6 | 97 SFC/10^6 | – | – |
| 3324.0350 (DHTNFKYSYSVIEGG) | – | – | 413 SFC/10^6 | 413 SFC/10^6 |
| 3324.1602 (RTIFFDAYLGTSYVI) | 433 SFC/10^6 | 433 SFC/10^6 | – | – |
| 3324.0356 (GLHLGGIKYMVIQGE) | – | – | 440 SFC/10^6 | 440 SFC/10^6 |
| 3324.0839 (ARKNFLESVKYVQSN) | – | – | 487 SFC/10^6 | 487 SFC/10^6 |
| 3324.1043 (SNVANLRNWIISNTV) | – | – | 177 SFC/10^6 | 177 SFC/10^6 |
| 3324.1186 (TNKAFVEGLASGYAD) | 287 SFC/10^6 | 287 SFC/10^6 | – | – |
| 3324.0619 (GPCLFMRKVSHVILH) | – | – | 687 SFC/10^6 | 687 SFC/10^6 |
| 3324.1591 (FIFGEARSLYLNTEL) | 500 SFC/10^6 and 133 SFC/10^6 | 500 SFC/10^6 and 133 SFC/10^6 | – | – |
| CC[C@H](C)[C@H](NC(=O)[C@H](Cc1ccc(O)cc1)NC(=O)[C@H](CC(C)C)NC(=O)[C@@H]1CCCN1C(=O)[C@H](CCSC)NC(=O)[C@H](CC(N)=O)NC(=O)[C@H](CC(C)C)NC(=O)[C@H](CCCCN)NC(=O)[C@@H](NC(=O)[C@H](CC(N)=O)NC(=O)[C@H](CC(C)C)NC(=O)[C@@H](N)CC(N)=O)[C@@H](C)CC)C(=O)N[C@@H](C)C(=O)NCC(=O)N[C@@H](CC(N)=O)C(=O)O [3324.0523] | – | – | 1708 SFC/10^6 | 1708 SFC/10^6 |
| CC[C@H](C)[C@H](NC(=O)[C@H](C)NC(=O)[C@@H](NC(=O)[C@H](Cc1ccccc1)NC(=O)[C@H](C)NC(=O)[C@H](CCCNC(=N)N)NC(=O)[C@H](CC(N)=O)NC(=O)CNC(=O)[C@H](CCCNC(=N)N)NC(=O)[C@H](CO)NC(=O)[C@H](Cc1ccccc1)NC(=O)[C@H](C)NC(=O)[C@@H](NC(=O)[C@H](CCC(N)=O)NC(=O)[C@@H](N)Cc1ccc(O)cc1)[C@@H](C)CC)[C@@H](C)CC)C(=O)O [3324.0980] | – | – | 177 SFC/10^6 and 380 SFC/10^6 | 177 SFC/10^6 and 380 SFC/10^6 |
| 3324.1181 (VDAAYRTAATAANAA) | 383 SFC/10^6 | 383 SFC/10^6 | – | – |
| 3324.1552 (HSRNLINELSERMAG) | 118 SFC/10^6 and 190 SFC/10^6 and 57 SFC/10^6 | 118 SFC/10^6 and 190 SFC/10^6 and 57 SFC/10^6 | – | – |
| 3324.0522 (IIFSKNLNIKLNMPL) | – | – | 863 SFC/10^6 | 863 SFC/10^6 |
| 3324.0979 (PDDLRSIYSRLHNLN) | – | – | 177 SFC/10^6 | 177 SFC/10^6 |
| 3324.1603 (DAYLGTSYVIVIKEP) | 290 SFC/10^6 | 290 SFC/10^6 | – | – |
| 3324.0998 (FDFLLMERIHEQIKK) | – | – | 143 SFC/10^6 | 143 SFC/10^6 |
| 3324.1632 (VIAELKAAGASTIQF) | 313 SFC/10^6 | 313 SFC/10^6 | – | – |

| Compound | Response (SFC/10^6) IL-5 ([1]; each table line is one donor) | Response (SFC/10^6) Total ([2]; each table line is one donor) | Response (SFC/10^6) IL-5 ([1]; one donor per table line) | Response (SFC/10^6) Total ([2]; one donor per table line) |
| --- | --- | --- | --- | --- |
| 3324.1600 (EYIEAAKWLLPPPKV) | 980 SFC/10^6 | 980 SFC/10^6 | – | – |
| 3324.1105 (LSEFITGASVRLQCR) | – | – | 73 SFC/10^6 | 73 SFC/10^6 |
| 3324.1130 (LISVEEFQTMMTSEM) | – | – | 153 SFC/10^6 | 153 SFC/10^6 |
| 3324.0827 (DNGYGYFAANIDLMM) | – | – | 53 SFC/10^6 | 53 SFC/10^6 |
| CC[C@H](C)[C@H](NC(=O)[C@H](Cc1c[nH]cn1)NC(=O)[C@H](Cc1ccc(O)cc1)NC(=O)[C@H](C)NC(=O)[C@@H](NC(=O)[C@H](Cc1ccccc1)NC(=O)[C@H](C)NC(=O)[C@H](CC(=O)O)NC(=O)[C@H](Cc1ccccc1)NC(=O)[C@H](CCC(=O)O)NC(=O)[C@H](CC(=O)O)NC(=O)[C@H](Cc1c[nH]cn1)NC(=O)CNC(=O)[C@@H](NC(=O)[C@@H](N)Cc1ccc(O)cc1)C(C)C)C(C)C)C(=O)O [3324.0975] | – | – | 973 SFC/10^6 | 973 SFC/10^6 |
| 3324.0364 (LSRALNLLGLETDLS) | – | – | 167 SFC/10^6 | 167 SFC/10^6 |
| 3324.1608 (IAIALLFLRDAKPEP) | 97 SFC/10^6 | 97 SFC/10^6 | – | – |
| 3324.0989 (SIYSRLHNLNKEFFP) | – | – | 117 SFC/10^6 | 117 SFC/10^6 |
| CC[C@H](C)[C@H](NC(=O)[C@H](CC(N)=O)NC(=O)[C@H](CCSC)NC(=O)[C@@H](N)CC(N)=O)C(=O)N[C@@H](CCCCN)C(=O)N[C@@H](CC(C)C)C(=O)N[C@@H](CCCCN)C(=O)N[C@@H](CCSC)C(=O)N1CCC[C@H]1C(=O)N[C@@H](CC(C)C)C(=O)N[C@@H](Cc1ccc(O)cc1)C(=O)N[C@H](C(=O)N[C@@H](C)C(=O)NCC(=O)N[C@@H](Cc1c[nH]cn1)C(=O)O)C(C)C [3324.0624] | – | – | 3147 SFC/10^6 | 3147 SFC/10^6 |
| 3324.0621 (MRKVSHVILHGLHIH) | – | – | 642 SFC/10^6 | 642 SFC/10^6 |
| 3324.0605 (HFFNHHKVMLLGHDD) | – | – | 992 SFC/10^6 | 992 SFC/10^6 |
| CC[C@H](C)[C@H](NC(=O)[C@H](CO)NC(=O)[C@H](CC(C)C)NC(=O)[C@H](C)NC(=O)[C@H](CC(C)C)NC(=O)[C@@H](N)CC(N)=O)C(=O)N[C@@H](CCCCN)C(=O)N[C@@H](Cc1ccc(O)cc1)C(=O)N[C@@H](CC(N)=O)C(=O)N[C@@H](CCCCN)C(=O)N[C@@H](CCC(=O)O)C(=O)NCC(=O)N[C@@H](CC(=O)O)C(=O)N[C@@H](CO)C(=O)N[C@@H](CCSC)C(=O)O [3324.0658] | – | – | 917 SFC/10^6 and 853 SFC/10^6 | 917 SFC/10^6 and 853 SFC/10^6 |
| 3324.0354 (GIKYMVIQGEAGAVI) | – | – | 350 SFC/10^6 | 350 SFC/10^6 |
| 3324.1593 (FEAARVVFSYCNLSD) | 363 SFC/10^6 | 363 SFC/10^6 | – | – |
| 3324.1170 (FLAVALVAGPAASYA) | 63 SFC/10^6 | 63 SFC/10^6 | – | – |
| 3324.1129 (ELADILRSLGSDVGE) | – | – | 380 SFC/10^6 | 380 SFC/10^6 |
| 3324.0968 (IRYNSLKHSLGGEKI) | – | – | 137 SFC/10^6 | 137 SFC/10^6 |
| 3324.1547 (KYMVIQGEPGAVIRG) | – | – | 63 SFC/10^6 | 63 SFC/10^6 |
| CC[C@H](C)[C@H](NC(=O)[C@H](Cc1c[nH]cn1)NC(=O)[C@H](Cc1ccc(O)cc1)NC(=O)[C@H](C)NC(=O)[C@@H](NC(=O)[C@H](Cc1ccccc1)NC(=O)[C@H](C)NC(=O)[C@H](CC(=O)O)NC(=O)[C@@H](N)Cc1ccccc1)C(C)C)C(=O)NCC(=O)N[C@@H](C)C(=O)N[C@@H](CCCNC(=N)N)C(=O)N[C@H](C(=O)N[C@H](C(=O)N[C@@H](CO)C(=O)O)C(C)C)[C@@H](C)CC [3324.0971] | – | – | 187 SFC/10^6 | 187 SFC/10^6 |
| 3324.0973 (FEGRLLKAATAFMLA) | – | – | 113 SFC/10^6 and 953 SFC/10^6 | 113 SFC/10^6 and 953 SFC/10^6 |
| 3324.0997 (GELALFYLQEQINHF) | – | – | 1113 SFC/10^6 | 1113 SFC/10^6 |
| 3324.1630 (TKLDDEIKSWLAFAA) | 87 SFC/10^6 | 87 SFC/10^6 | – | – |
| 3324.0351 (YETETTSVIPAARLF) | – | – | 403 SFC/10^6 | 403 SFC/10^6 |
| 3324.1131 (GYVSLQEFVDLNNKG) | – | – | 80 SFC/10^6 and 420 SFC/10^6 | 80 SFC/10^6 and 420 SFC/10^6 |
| 3324.0970 (EFDAFVAYHIGARIV) | – | – | 123 SFC/10^6 and 763 SFC/10^6 | 123 SFC/10^6 and 763 SFC/10^6 |
| 3324.1179 (FTVFENTFNNAIKVS) | 87 SFC/10^6 | 87 SFC/10^6 | – | – |
| 3324.0993 (VKFRMIAGQEPVHNW) | – | – | 92 SFC/10^6 | 92 SFC/10^6 |
